The text below walks through data of a melting point compilation (Tetko et al.; mined from patent text by program, amines drawn as free bases though some values may be those of a salt).

Take `COc1ccc(CN(C)CCc2ccc(NC(=O)c3cccc(C(=O)c4ccccc4)c3)cc2)cc1OC`: the melting point came to 130 °C.

Regarding `Cc1noc(C)c1C(C)(O)c1ccsc1` (centres undefined), the melting point lay within 93.5 to 95 °C.

`COCC(=O)c1cnc(C2OCCO2)s1` displayed a melting point of 65 to 66 °C.

On to `CC(C)n1nc(-c2sc(C(=O)NC3CC3)nc2-c2ccc(F)cc2)ccc1=O`, for which the melting point is 157 to 158 °C.

For the compound `Cn1nc(CS(C)(=O)=O)nc1NCCCOc1ccc(CN2CCCCC2)cc1`, the melting point is 131 to 134 °C.

The compound `COC=C(C#C[Si](C)(C)C)C(=O)OC` gave a melting point of 70 to 72 °C.

Consider `Cc1cccc(-c2n[nH]cc2-c2ccc(F)c(-c3cc[nH]n3)c2)n1`, for which the melting point fell in the range of 105 to 108 °C.

In turn, `Cc1ccc(N2CCCN(c3ccnc4sc(C(N)=O)c(N)c34)CC2)cc1[N+](=O)[O-]` gave a melting point of 114 to 117 °C.

The compound `Cn1cc(C2=C(c3cn(C)c4cc(C#N)ccc34)C(=O)NC2=O)c2ccc(N)cc21` had a melting point of 255 to 260 °C.

`O=C(NC1C(O)=COC2=C1SC([N+](=O)[O-])C2)c1ccc(C(F)(F)F)cc1` (centres undefined) yielded a melting point of 219 to 220 °C.

`CCCC(=O)c1cnc2c(C(O)CN(C)C)cccc2c1Nc1ccccc1C` (centres undefined): the melting point lay within 95 to 96 °C.

Turning to `CCCCc1nc2c(n1Cc1ccc(-c3ccccc3S(=O)(=O)NC(=O)NCCC)cc1)C(=NO)CCS2`, the melting point came out at 178 °C.

With `C[C@@H]1CN(c2nccc(Oc3ccc(NC(=O)c4cc(F)cc(N5CCCCC5)c4)c4ccccc34)n2)C[C@H](C)O1`, the melting point lay in the range of 174 to 176 °C.

As for `COc1ccc(-c2nc(CNC(=O)C3=NNC(=O)CC3)sc2-c2ccc(OC)cc2)cc1`, the melting point fell in the range of 174 to 175 °C.

Compound `CC(CO)Oc1cc(Oc2ccc(C(=O)N3CCC3)cc2F)cc(C(=O)O)c1` (centres undefined) yielded a melting point of 133 °C.

The compound `CC1NC(=O)NN=C1c1ccc(OCC(=O)NCCN2CCNCC2)c(Cl)c1` (centres undefined) showed a melting point of 208 to 210 °C.

The compound `Nc1cc(I)cnc1Cl` returned a melting point of 129 °C.

Turning to `CC(=O)NCCC1CCCc2ccc(O)cc21` (centres undefined), the melting point lay within 153 to 155 °C.

`Nc1nc(O)c2cc(CN(Cc3c[nH]c(=O)[nH]c3=O)c3ccc(C(=O)N[C@@H](CCC(=O)O)C(=O)O)cc3)ccc2n1` showed a melting point of 250 to 255 °C.

Take `COc1cc(C=O)c(OC)c2ccccc12`: the melting point is 120 to 123 °C.

With `O=C(c1cc(O)c(O)c([N+](=O)[O-])c1)c1cccs1`, the melting point fell in the range of 155 to 157 °C.

For `CCCN(CCC)c1nc2c(Cl)nccc2c(=O)[nH]1`, the melting point is 180 °C.

In turn, `OC1CSC(Oc2cccc(-c3ccco3)c2)C(O)C1O` (centres undefined) returned a melting point of 138 °C.

`CCS(=O)(=O)CCC(=O)NNC(=O)N1Cc2cc(OC)ccc2Oc2ccc(Cl)cc21` yielded a melting point of 173 to 175 °C.

With `CS(=O)(=O)c1ccc(-c2cnn(CC(=O)c3ccc(C(F)(F)F)cc3)c(=O)c2-c2ccc(F)cc2)cc1`, the melting point was in the range of 205 to 206 °C.

Turning to `CCN(CC)CCCn1[nH]c(C)c2c(=O)nc(-c3ccncc3)nc1-2`, the melting point was 164 to 166 °C.

`O=C(OC1CCCCC1)C1=C(O)c2ccccc2S(=O)(=O)N1`: the melting point is 158 °C.

`CC1=C(O)C(=O)c2ccccc2C1=O` showed a melting point of 173 to 174 °C.

`CC(C)Cn1cc(-c2ccc3nnn(Cc4ccc5ncccc5c4)c3n2)cn1`: the melting point lay in the range of 160 to 163 °C.

The compound `CCn1cnc2c(Nc3cccc(Cl)c3)nc(N3CCCC(N)C3)nc21` (centres undefined) registered a melting point of 165 °C.

The compound `Cc1ccn2c(C)c(-c3ccc4c(c3)NC(=O)C(C)O4)nc2c1` (centres undefined) yielded a melting point of 254 to 256 °C.

`Brc1ccc2oc(Cc3cccs3)cc2c1` registered a melting point of 84 to 86 °C.

For the compound `CCOC(=O)COn1c2c([nH]c(=O)c1=O)CCC1=C2C=C(n2ccc(CNC(=O)C(F)(F)F)c2)CC1`, the melting point came out at 199 °C.

Take `OCC1(CO)Nc2cccc3cccc(c23)N1`: the melting point came out at 158 °C.

One may read the melting point as the temperature, or range, at which the solid turns liquid.
